Tested on: HEK293 cells
Assay: Preliminary screening as mRNA vectors, EGFP mRNA transfection of HEK293 cells
Assay type: cell-based
Settings: EGFP mRNA 50 ng per well, 96-well plates; percentage of GFP fluorescent cells relative to total number of cells (Hoechst)
Outline: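 Screening format: EGFP mRNA transfection (50 ng/well) into HEK293 in 10% FBS-supplemented DMEM. Percent green fluorescent cells, normalised to Hoechst nuclear count, gave the value; Lipofectamine2000 was the reference transfectant.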

Point of comparison: `CCCCCCCCCCCNc1nc(NCCN(CC)CC)nc(SCCCCCCC)n1` [Compound D7S7N11], “Absolute mRNA transfection efficiency in HEK293 cells” value 11.1%. Against it:
- CCCCCCCCCCCCNc1nc(NCCN(CC)CC)nc(SCCCCCC)n1 [Compound D7S6N12] — lower, 1.4%
- CCCCCCCCCCCCCNc1nc(NCCN(CC)CC)nc(SCCCCCC)n1 [Compound D7S6N13] — lower, 2.6%
- CCCCCCCCCCCCCCCNc1nc(NCCN(CC)CC)nc(SCCCCCC)n1 [Compound D7S6N15] — lower, 2.2%
- CCCCCCCCCCCCCCCCNc1nc(NCCN(CC)CC)nc(SCCCCCC)n1 [Compound D7S6N16] — lower, 3.0%
- CCCCCCCCCCCCCCCCCCNc1nc(NCCN(CC)CC)nc(SCCCCCC)n1 [Compound D7S6N18] — lower, 4.6%
- CCCCCCSc1nc(NCCN(CC)CC)nc(SCCCCCC)n1 [Compound D7S6S6] — higher, 19.5%
- CCCCCCCSc1nc(NCCN(CC)CC)nc(SCCCCCC)n1 [Compound D7S6S7] — higher, 22.9%
- CCCCCCCCSc1nc(NCCN(CC)CC)nc(SCCCCCC)n1 [Compound D7S6S8] — higher, 18.9%
- CCCCCCCCCSc1nc(NCCN(CC)CC)nc(SCCCCCC)n1 [Compound D7S6S9] — lower, 4.2%
- CCCCCCCCCCSc1nc(NCCN(CC)CC)nc(SCCCCCC)n1 [Compound D7S6S10] — lower, 2.7%
- CCCCCCCCCCCSc1nc(NCCN(CC)CC)nc(SCCCCCC)n1 [Compound D7S6S11] — lower, 0.5%
- CCCCCCCCCCCCSc1nc(NCCN(CC)CC)nc(SCCCCCC)n1 [Compound D7S6S12] — lower, 8.1%
- CCCCCCCCCCCCCCSc1nc(NCCN(CC)CC)nc(SCCCCCC)n1 [Compound D7S6S14] — lower, 3.8%
- CCCCCCCCCCCCCCCSc1nc(NCCN(CC)CC)nc(SCCCCCC)n1 [Compound D7S6S15] — lower, 1.3%
- CCCCCCCCCCCCCCCCSc1nc(NCCN(CC)CC)nc(SCCCCCC)n1 [Compound D7S6S16] — lower, 2.3%
- CCCCCCCCCCCCCCCCCCSc1nc(NCCN(CC)CC)nc(SCCCCCC)n1 [Compound D7S6S18] — lower, 9.5%
- CCCCCCCSc1nc(NCCCCCC)nc(NCCN(CC)CC)n1 [Compound D7S7N6] — lower, 2.3%
- CCCCCCCNc1nc(NCCN(CC)CC)nc(SCCCCCCC)n1 [Compound D7S7N7] — lower, 3.9%
- CCCCCCCCNc1nc(NCCN(CC)CC)nc(SCCCCCCC)n1 [Compound D7S7N8] — lower, 3.5%
- CCCCCCCCCNc1nc(NCCN(CC)CC)nc(SCCCCCCC)n1 [Compound D7S7N9] — lower, 10.5%
- CCCCCCCCCCCCNc1nc(NCCN(CC)CC)nc(SCCCCCCC)n1 [Compound D7S7N12] — lower, 3.6%
- CCCCCCCCCCCCCNc1nc(NCCN(CC)CC)nc(SCCCCCCC)n1 [Compound D7S7N13] — lower, 1.2%
- CCCCCCCCCCCCCCCNc1nc(NCCN(CC)CC)nc(SCCCCCCC)n1 [Compound D7S7N15] — higher, 18.5%
- CCCCCCCCCCCCCCCCNc1nc(NCCN(CC)CC)nc(SCCCCCCC)n1 [Compound D7S7N16] — higher, 12.8%
- CCCCCCCCCCCCCCCCCCNc1nc(NCCN(CC)CC)nc(SCCCCCCC)n1 [Compound D7S7N18] — higher, 16.7%
- CCCCCCCSc1nc(NCCN(CC)CC)nc(SCCCCCCC)n1 [Compound D7S7S7] — higher, 18.4%
- CCCCCCCCSc1nc(NCCN(CC)CC)nc(SCCCCCCC)n1 [Compound D7S7S8] — higher, 42.1%
- CCCCCCCCCSc1nc(NCCN(CC)CC)nc(SCCCCCCC)n1 [Compound D7S7S9] — higher, 13.5%

From patent US20230123334A1, “AMINO LIPID COMPOUND, PREPARATION METHOD THEREFOR, AND APPLICATION THEREOF” (SHENZHEN SHENXIN BIOTECHNOLOGY CO., LTD., priority 2020, published 2023)
